Test results as given in patent US20230172925A1, “SKIN-CARE COMPOSITIONS AND USES THEREOF” (AHAVA - DEAD SEA LABORATORIES LTD., priority 2019, published 2023).
“Also recorded” adds a separate entry of the source.

Experiments:
IL-1α [1] = assay: Human skin organ culture without UVB stressor, IL-1α secretion; type: cell-based; details: no UVB; for IL-1α secretion level, times of the control value: SDS 10% applied once
Procedure: (§1) Topical Exposure Till 96 Hours without External UVB Radiation as Stressor on Human Skin Model
(§2) Day 1: Topical application of 3 μl of each solution on the epidermis of each skin explant. Incubate for 24 hours. (SDS Irritation control: topical application of 3 ul SDS 10% was applied on the skin model at day 1 only. The rest of the days samples were untouched).
(§3) Day 2: Topical application of 3 μl of each solution on the epidermis of each skin explant. Incubate for 24 hours in fresh medium (medium was not collected). (UVB control: after 24 hours incubation with 3 μl H2O skin was irradiated with 200 mJ/cm2 UVB. The rest of the experiment days sample were topically applied with H2O, as control).
(§4) Day 3: Topical application of 3 μl of each solution on the epidermis of each skin explant. Incubate for 24 hours in fresh medium (medium was collected)—48 hours of total topical incubation.
(§5) Day 4: Topical application of 3 μl of each solution on the epidermis of each skin explant. Incubate for 24 hours in fresh medium (medium was collected)—72 hours of total topical incubation.
(§6) Day 5: Topical application of 3 μl of each solution on the epidermis of each skin explant. Incubate for 24 hours in fresh medium (medium was collected)—96 hours of total topical incubation. MTT assay was performed.
FIG. 9A illustrates the IL-1α secretion results in the medium. In FIG. 9A the IL-1α secretion of the H2O sample was used as a control (9.0±0.7 pg/ml […]) for each time point. FIG. 9B is a magnification of FIG. 9A.

[2] = test system: human skin explants (epidermis); assay: Human skin organ culture with UVB stressor, viability by MTT assay; type: cell-based
Procedure: (§7) Topical exposure till 48 hours in total (24 hr recovery following topical application+24 hr after exposure to UVB irradiation) with UVB radiation as stressor on human skin model
(§8) The following general procedure was used in the study:
(§9) Day 1: Topical application of 3 μl of each sample solution on the epidermis of each skin explant. Incubate for 24 hours. SDS 10% was applied only once, and was not farther irradiated with UVB.
(§10) Day 2: Skin explants were washed once with PBS and irradiated with UVB lamp at 200 mJ/cm2. After radiation it was incubated for 30 min and then topically apply each treatment (sample solution) again. Control was not irradiated under UVB light. UVB radiated control was without any treatment except radiation.
(§11) Day 3: Viability and Caspase3 activity were measured for the epidermis layer. The medium was collected for cytokines test.
FIG. 2 illustrates a flow diagram of topical exposure/treatment till 48 hours, 24 hr recovery following topical application +24 hr after exposure to UVB irradiation) with UVB radiation as stressor on human skin model experiment. In the Experiment the SDS irritation control sample was a skin explant that was topical applied with 3 μl SDS 10% solution at day 1 only.
The viability of the various skin explants was measured by the 5-dimethylthiazol-2-yl]-2,5-diphenyl tetrazolium bromide (MTT) assay.

[3] = test system: human skin explants (epidermis); assay: Human skin organ culture without UVB stressor, topical exposure till 96 hours, viability by MTT assay; type: cell-based; details: no UVB
Procedure: as §1, §2, §3, §4, §5
Day 5: Topical application of 3 μl of each solution on the epidermis of each skin explant. Incubate for 24 hours in fresh medium (medium was collected)—96 hours of total topical incubation. MTT assay was performed. […]
The viability of the various skin explants was measured by the MTT assay.

TNFα [4] = assay: Human skin organ culture with UVB stressor, TNFα secretion in the medium; type: cell-based; details: for reduction of TNFα secretion compared to the irradiated sample: UVB
Procedure: as §7, §8, §9, §10, §11
FIG. 4 illustrates the TNFα secretion results in the medium as observed with 2 to 4 repetition of the tests. In FIG. 4 the TNFα secretion of the irradiated sample “UVB” was selected as 100% and it equals 53±30 pg/ml.

[5] = test system: human primary fibroblasts; assay: Hyaluronic acid production assay (ELISA); type: cell-based; details: Retinol 1.0 μM in the culture media; 48 hours
Procedure: The human primary fibroblast cell culture was grown at an 80% confluence in Dulbecco's Modified Eagle's High glucose (Hg) medium (DMEM) culture medium containing 10% fetal bovine serum, 100 U/ml penicillin, and 100 U/ml streptomycin. The cells were cultivated in 6 wells plates.
The pRetinol complex was added at a final concentrations of. Osmoter 0.2%, Dunaliella salina extract 1.2%, Niacinimide 0.04% and 6.24 ppm of β-Carotene i.e., 2.5 times dilution (the dilution was necessary in view of the human primary fibroblast cells culture being more sensitive than skin full organ culture). Retinol was added to the medium at a final concentration of 1.0 μM.
The cells were incubated at 37° C., 5% CO2 at a 100% RH for 48 hours. After incubation the cells were extracted using RIPA buffer collected to a blending Eppendorf and ground using stain steal beads and a bullet blender for 5 min. The samples were centrifuged for 15 min at 5000 rpm and the supernatant was collected.
BCA Protein concentration assay were performed on all the samples. The protein level for all samples was dilated to reach a concentration of 0.1 ng/ml of protein, diluted with PBS. Samples contain a protein concentration of 0.1 ng/ml were tested for hyaluronic ELISA assay kit (R&D systems, ELISA kit). Results were obtained as ng/ml of hyaluronic acid per 1 μg of protein. […]

IL-1α [6] = assay: Human skin organ culture with UVB stressor, IL-1α secretion in the medium; type: cell-based; details: for increase of IL-1α secretion: UVB
Procedure: as §7, §8, §9, §10, §11
FIG. 5 illustrates the IL-1α secretion results in the medium as observed with 3 to 4 repetition of the tests. In FIG. 5 the IL-1α secretion of the irradiated sample “UVB” was selected as 100% and it equals 8.1±1.0 pg/ml.

skin equivalents = assay: DNA microarray gene expression in skin equivalents, comparative with 3D complex and Retinol (Example 6); type: cell-based, human; details: Retinol 5 μM
Procedure: In the present study the biological activity on gene expression of the pRETINOL complex was compared to the activity of a composition which was previously described in [13] and [14] and referred to herein as 3D complex. The activity was further compared to that observed with Retinol (5 μM of Retinol in double distilled water).
On each array, treated vs. untreated samples were compared. Each array was processed and the data from all arrays was normalized to get the average expression and log fold change (log FC) for each gene on each array.
An analysis of full human genome was performed.
Further to the above analysis, similar to the study presented in Example 5, major skin related pathways were selected from KEGG and wiki pathways list and the p-value and z-score were calculated for these pathways.

TNFα [7] = assay: Human skin organ culture without UVB stressor, TNFα secretion; type: cell-based; details: no UVB
Procedure: as §1, §2, §3, §4, §5, §6
FIG. 8 illustrates the TNFα secretion tested results. In FIG. 8 the TNFα secretion of the H2O sample was used as a control (0.35±0.05 pg/ml) for each time point.

CC1=C(/C=C/C(C)=C/C=C/C(C)=C/CO)C(C)(C)CCC1 [Retinol]
IL-1α secretion (IL-1α [1]; Retinol 1.0%, 48, 72 and 96 hours): increased; also recorded: caused an increase | viability (MTT, mitochondrial activity) of epidermis ([2]; UVB 200 mJ/cm2, topical 3 μl before and after irradiation, 48 hours in total, compared to irradiated control): increased mitochondrial activity | viability (MTT, mitochondrial activity) of skin explants ([3]; 96 hours of topical application, vs control): did not cause increase or reduction of viability | reduction of TNFα secretion compared to the irradiated sample (TNFα [4]; Retinol 0.5% (w/w) in EtOH): 56% | reduction of TNFα secretion compared to the irradiated sample (TNFα [4]; Retinol 1.0% (w/w) in EtOH): 45% | production of hyaluronic acid compared to the control sample [5]: induce the production of hyaluronic acid | increase of IL-1α secretion (IL-1α [6]; Retinol 0.05% (w/w) in EtOH): 83% | increase of IL-1α secretion (IL-1α [6]; Retinol 0.5% (w/w) in EtOH): 50% | increase of IL-1α secretion (IL-1α [6]; Retinol 1.0% (w/w) in EtOH): 53% | z-score (skin equivalents; KEGG_APOPTOSIS): 1.0758 | z-score (skin equivalents; KEGG_BASE_EXCISION_REPAIR): −0.2818 | z-score (skin equivalents; KEGG_NF_KAPPA_B_SIGNALING_PATHWAY): −0.4673 | z-score (skin equivalents; KEGG_NOD-LIKE_RECEPTOR SIGNALING PATHWAY): −0.3502 | z-score (skin equivalents; KEGG_SPHINGOLIPID_METABOLISM): −0.6417 | z-score (skin equivalents; KEGG_TNF_SIGNALING_PATHWAY): −1.1097 | z-score (skin equivalents; KEGG_YERSINIA_INFECTION): 1.5054 | z-score (skin equivalents; WIKI_KERATINIZATION): 10.548 | TNFα secretion (TNFα [7]; Retinol 0.5%, after incubation of 72 hours, H2O control 0.35±0.05 pg/ml): below the detection level | TNFα secretion (TNFα [7]; Retinol 1.0%, after incubation of 72 hours, H2O control 0.35±0.05 pg/ml): below the detection level | TNFα secretion (TNFα [7]; Retinol for 48, 72 and 96 hours, reduction also observed with ethanol only): caused a reduction

CCCCCCCCCCCCOS(=O)(=O)[O-].[Na+] [SDS]
IL-1α secretion level, times of the control value (IL-1α [1]; after 48 hours): 6.5 times of the control value | IL-1α secretion level, times of the control value (IL-1α [1]; after 72 hours and 96 hours): 10.6 times of the control value | viability (MTT) of epidermis ([2]; SDS 10% applied only once, not irradiated, 24 hours of incubation): caused epidermis death | epidermis viability (MTT), % of the control value ([3]; SDS 10% applied only once, after 96 hours): 15% | TNFα secretion (TNFα [4]; SDS 10%, one treatment, not irradiated): significant reduction | IL-1α secretion (IL-1α [6]; SDS 10% applied once, incubation of 24 hours): dramatically increased | TNFα secretion (TNFα [7]; SDS 10% applied once, after incubation of 48 hours): below the detection lever
